According to patent publication US20070043118A1, “Method of treating a subject suffering from degenerative disc disease using a nitric oxide synthase inhibitor” (Discogen, LLC, priority 2005, published 2007):

How the values were obtained:
[1] = tested on: patients with chronic intractable lower back pain and positive discography; assay: Biochemical injection treatment in human subjects (intradiscal injection; disability questionnaire and visual analogue pain scale); type: in vivo; details: intradiscal injection of 1 to 2 cc disc solution per involved disc
Source text: Thirty patients with chronic intractable lower back pain and positive discography would participate in the study. These would be adult patients with chronic lower back pain who have been unresponsive or responded poorly to multiple previous methods of treatment, including physical therapy, multiple analgesics, injection therapy, laminectomies, fusions and intradiscal electrothermal annuloplasty (IDET) procedures. These patients would have positive discography at one or more lumbar levels and concordant pain provocation combined with morphologic disc abnormalities.
Using sterile techniques and United States Pharmacopeia-grade pharmaceuticals solutions containing the NOS inhibitors are prepared, specifically, one solution is prepared for each of GED, L-NAME, and L-NMMA. The “GED disc solution” consists of 0.3 mg/kg to 10 mg/kg GED by subject weight; 1.0 to 100 micromolar by concentration. The “L-NAME disc solution” consists of 1.0 mg/kg L-NAME by subject weight; 5.0 to 100 micromolar by concentration. The “L-NMMA disc solution” consists of 1.0 mg/kg L0NMA by subject weight; 5.0 to 100 micromolar by concentration. These concentrations are derived based on solubility and tolerance characteristics of the constituents. These are mixed with 33% nonionic contrast and 33% of 50% dextrose at the time of injection. A total of 1 to 2 cc of each solution is injected into each involved disc. All solutions are tested on separate patients. Injection promptly terminates if there is any leakage of contrast into the epidural space. Zygapophyseal joint injections are performed after fluroscopic confirmation of correct needle placement using intra-articular contrast and are performed at the same levels as the disc injections.
To avoid patient discomfort, the first series of injections are performed at the time of diagnostic discography. An intradiscal injection of 1 to 2 cc is used at each involved disc level. The levels are determined by discography. This is combined with injection of the zygapophyseal joints at the painful disc level(s) with the modified solution mixture as described above. […]

[2] = tested on: disc tissue obtained from human subjects; details: in vitro; cited from earlier work

Row | SMILES | treatment outcome: pain and disability before and after treatment (disability questionnaire 0-24, visual analogue pain scale 0-10) [1] | level of NO present in disc tissue [2]
1 | N=C(N)NCCSSCCNC(=N)N [GED, guanidinoethyldisulfide] | effective in treating the patients and providing symptomatic relief | –
2 | COC(=O)[C@@H](N)CCCNC(=N)N[N+](=O)[O-] [L-NAME, nitro-L-arginine methyl ester] | effective in treating the patients and providing symptomatic relief | –
3 | [H]/N=C(\NC)NCCC[C@H](N)C(=O)O [L-NMMA, N-monomethyl-L-arginine] | effective in treating the patients and providing symptomatic relief | reduce the level of NO present
